Test [1] concerns the target T1, human glucocorticoid receptor-α [GRX] isoform (Homo sapiens, UniProt P04150).
T1 construct: host or cells: insect SF21 cells (baculovirus)
T1 sequence (P04150 1-777): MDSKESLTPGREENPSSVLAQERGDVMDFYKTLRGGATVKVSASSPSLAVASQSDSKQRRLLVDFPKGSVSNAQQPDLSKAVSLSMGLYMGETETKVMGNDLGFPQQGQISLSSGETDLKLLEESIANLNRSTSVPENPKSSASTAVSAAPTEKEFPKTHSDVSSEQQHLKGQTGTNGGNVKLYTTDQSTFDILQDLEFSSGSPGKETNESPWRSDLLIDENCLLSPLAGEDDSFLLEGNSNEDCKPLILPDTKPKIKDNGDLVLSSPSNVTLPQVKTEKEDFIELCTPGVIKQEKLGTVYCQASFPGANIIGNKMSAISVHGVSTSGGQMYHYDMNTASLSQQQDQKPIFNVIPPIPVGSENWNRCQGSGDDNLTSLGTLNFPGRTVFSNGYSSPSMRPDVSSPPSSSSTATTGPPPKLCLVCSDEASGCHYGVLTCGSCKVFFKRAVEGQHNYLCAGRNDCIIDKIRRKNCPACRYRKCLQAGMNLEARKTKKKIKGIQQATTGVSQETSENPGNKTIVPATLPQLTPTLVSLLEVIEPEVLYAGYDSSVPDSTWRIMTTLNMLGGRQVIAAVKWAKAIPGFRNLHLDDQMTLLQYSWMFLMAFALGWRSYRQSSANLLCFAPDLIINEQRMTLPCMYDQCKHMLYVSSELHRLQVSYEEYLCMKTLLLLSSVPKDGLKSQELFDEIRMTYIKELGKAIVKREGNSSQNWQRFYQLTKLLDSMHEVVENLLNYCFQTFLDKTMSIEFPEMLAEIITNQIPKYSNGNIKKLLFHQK
The test can be described thus: Radioligand binding with human glucocorticoid receptor cytosol ([3H]-dexamethasone competition). To be noted: GRX cytosol expressed in insect SF21 cells, [3H]-Dex ~0.9 nM, 4° C. overnight; Ki by Cheng-Prusoff, KL ~[…]; read-out: Ki (nM) GR.
Description: Briefly, cytosol preparations of human glucocorticoid receptor-α [GRX] isoform and human progesterone receptor-A [PRA] isoform were obtained from Ligand Pharmaceuticals (San Diego, Calif.). Both receptor cDNAs were cloned into baculovirus expression vectors and expressed in insect SF21 cells. [^3H]-dexamethasone (Dex, specific activity 82-86 Ci/mmole) and [^3H]-progesterone (Prog, specific activity 97-102 Ci/mmol) were purchased from Amersham Life Sciences (Arlington Heights, Ill.). Glass fiber type C multiscreen MAFC NOB plates were from Millipore (Burlington, Mass.). Hydroxyapatide Bio-Gel HTP gel was from Bio-Rad Laboratories (Hercules, Calif.). Tris(hydroxymethyl)aminomethane (Tris), ethylenediaminetetraacetic acid (EDTA), glycerol, dithiothreitol (DTT) and sodium moylybdate were obtained from Sigma Chemicals (St. Louis, Mo.). Microscint-20 scintillation fluid was from Packard Instrument (Meriden, Conn.).
Stock solutions (32 mM) of compounds were prepared in dimethylsulfoxide (DMSO), and 50× solutions of test compounds were prepared from the 32 mM solution with a 50:50 mixture of DMSO/ethanol. The 50× solution was then diluted with binding buffer that contained 10 mM Tri-HCl, 1.5 mM EDTA, 10% glycerol, 1 mM DTT, 20 mM sodium molybdate, pH 7.5 @4° C. 1% DMSO/ethanol was present in the binding assay.
For GR binding assays, [^3H]-Dex (˜35,000 dpm (˜0.9 nM)), GRX cytosol (˜35 μg protein), test compounds and binding buffer were mixed in a total volume of 200 μL and incubated at 4° C. overnight in a plate shaker. Specific binding was defined as the difference between binding of [^3H]Dex in the absence and in the presence of 1 μM unlabelled Dex.
After an overnight incubation, 50 μL of hydroxyapatite (25% weight/volume) slurry were added to each well and plates were incubated for 10 min at 0° C. in a plate shaker. Plates were suctioned with a Millipore vacuum manifold and each well was rinsed with 300 μL of ice-cold binding buffer. A 250 μL aliquot of Packard Microscint-20 was added to each well and the wells were shaken at room temperature for 20 minutes. The amount of radioactivity was determined with a Packard TopCount plate reader.
The Ki of test compounds was determined using the Cheng-Prusoff equation Ki=IC50/(1+[L*]/[KL]) where L* is the concentration of radioligand and KL is the dissociation constant of the radioligand determined from saturation analysis.

For test [2], the target named is T2, human progesterone receptor-A [PRA] isoform (Homo sapiens, UniProt P06401).
T2 construct: host or cells: insect SF21 cells (baculovirus)
T2 sequence (P06401 1-769 isoform P06401-2): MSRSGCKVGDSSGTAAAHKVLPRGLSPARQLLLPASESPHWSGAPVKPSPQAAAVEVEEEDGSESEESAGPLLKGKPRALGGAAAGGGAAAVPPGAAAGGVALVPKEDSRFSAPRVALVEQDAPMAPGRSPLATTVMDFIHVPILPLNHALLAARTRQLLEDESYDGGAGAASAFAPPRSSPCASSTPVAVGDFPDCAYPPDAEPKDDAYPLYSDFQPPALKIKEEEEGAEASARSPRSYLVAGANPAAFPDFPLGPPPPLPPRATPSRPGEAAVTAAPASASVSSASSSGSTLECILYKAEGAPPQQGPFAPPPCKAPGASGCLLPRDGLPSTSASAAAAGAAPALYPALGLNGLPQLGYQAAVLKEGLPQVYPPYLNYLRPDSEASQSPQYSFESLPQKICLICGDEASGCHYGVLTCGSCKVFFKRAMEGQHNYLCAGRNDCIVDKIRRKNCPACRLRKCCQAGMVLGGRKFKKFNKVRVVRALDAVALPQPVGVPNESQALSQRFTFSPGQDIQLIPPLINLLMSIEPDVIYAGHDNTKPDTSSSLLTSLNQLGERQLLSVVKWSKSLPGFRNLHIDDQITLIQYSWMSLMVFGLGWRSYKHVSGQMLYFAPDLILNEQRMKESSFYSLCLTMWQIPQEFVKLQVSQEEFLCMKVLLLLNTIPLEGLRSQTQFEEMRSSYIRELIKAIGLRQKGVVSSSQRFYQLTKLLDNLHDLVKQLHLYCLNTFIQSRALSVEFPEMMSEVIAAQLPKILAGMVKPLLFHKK
The test can be described thus: Radioligand binding with human progesterone receptor cytosol ([3H]-progesterone competition). To be noted: PRA cytosol expressed in insect SF21 cells, [3H]Prog ~0.8 nM, 4° C. overnight; Ki by Cheng-Prusoff, KL ~4.5 nM; read-out: Ki (nM) PR.

By Ki is commonly meant a measure of affinity in units of concentration, obtained from inhibition or displacement. Regarding `COc1cccc2c1-c1ccc3c(c1C(c1ccc(OCc4ccccc4)cc1)O2)C(C)=CC(C)(C)N3` (centres unmarked) [Example 98, 2,5-Dihydro-10-methoxy-2,2,4-trimethyl-5-[4-(phenylmethoxy)phenyl]-1H-[1]benzopyranol[3,4-f]quinoline], the Ki in test [1] is 9.8 nM; in test [2] it was at least 10000 nM.

As to `COCOc1cccc(C2Oc3cccc(OC)c3-c3ccc4c(c32)C(C)=CC(C)(C)N4)c1` (centres unmarked) [Example 99], the Ki in test [1] was 3.6 nM; in test [2], at least 10000 nM.

In the case of `COc1cccc2c1-c1ccc3c(c1C(c1cccc(OC(=O)N4CCOCC4)c1)O2)C(C)=CC(C)(C)N3` (centres unmarked) [Example 100, [(2,5-Dihydro-10-methoxy-2,2,4-trimethyl-1H-[1]benzopyrano[3,4-f]quinolin-5-yl)phenyl]1-morpholinecarboxylate], the Ki in test [1] was 7.8 nM; in test [2] it was at least 10000 nM.

Consider `COc1cccc2c1-c1ccc3c(c1C(c1cccc(OC[S+](C)[O-])c1)O2)C(C)=CC(C)(C)N3` (centres unmarked) [Example 101, 2,5-Dihydro-10-methoxy-2,2,4-trimethyl-5-[3-[(methylsulfinyl)methoxy]phenyl]-1H-[1]benzopyrano[3,4-f]quionline], for which the Ki is 11.4 nM in test [1] and at least 10000 nM in test [2].

As for `COc1cccc2c1-c1ccc3c(c1C(c1cccc(SC)c1)O2)C(C)=CC(C)(C)N3` (centres unmarked) [Example 103], the Ki was 5.2 nM in test [1] and at least 10000 nM in test [2].

As to `COC(=S)Oc1cccc(C2Oc3cccc(OC)c3-c3ccc4c(c32)C(C)=CC(C)(C)N4)c1` (centres unmarked) [Example 104, O-[3-(2,5-Dihydro-10-methoxy-2,2,4-trimethyl-1H-[1]benzopyrano[3,4-f]quinolin-5-yl)phenyl]methylcarbonothioate], the Ki in test [1] is 8.9 nM; in test [2], at least 10000 nM.

Consider `COc1cccc2c1-c1ccc3c(c1C(c1cccc(OS(=O)(=O)C(F)(F)F)c1)O2)C(C)=CC(C)(C)N3` (centres unmarked) [Example 105], for which the values for the Ki in test [1] and in test [2] were 9 nM and above 10000 nM, respectively.

Take `COc1cccc2c1-c1ccc3c(c1C(c1cccc(C4=NC(C)(C)CO4)c1)O2)C(C)=CC(C)(C)N3` (centres unmarked) [Example 106]: the Ki is 62 nM in test [1] and above 10000 nM in test [2].

Consider `CCOC(=O)c1cccc(C2Oc3cccc(OC)c3-c3ccc4c(c32)C(C)=CC(C)(C)N4)c1` (centres unmarked) [Example 107], for which the Ki is 215 nM in test [1] and above 10000 nM in test [2].

As for `COc1cccc2c1-c1ccc3c(c1C(c1cccc(C(=O)O)c1)O2)C(C)=CC(C)(C)N3` (centres unmarked) [Example 108, 3-(2,5-Dihydro-10-methoxy-2,2,4-trimethyl-1H-[1]benzopyrano[3,4-f]quinolin-5-yl)benzoic Acid], the values for the Ki in test [1] and in test [2] were 638 nM and above 10000 nM, respectively.

For `C=CCc1cc(C)cc(C2Oc3cccc(OC)c3-c3ccc4c(c32)C(C)=CC(C)(C)N4)c1` (centres unmarked) [Example 109, 2,5-Dihydro-10-methoxy-2,2,4-trimethyl-5-[3-methyl-5-(2-propenyl)phenyl]-1H-[1]benzopyrano[3,4-f]quinoline], the figures for the Ki in test [1] and in test [2] were 6.1 nM and at least 10000 nM, respectively.

`COc1cccc2c1-c1ccc3c(c1C(c1cc(C)cc(C(C)=O)c1)O2)C(C)=CC(C)(C)N3` (centres unmarked) [Example 110, 1-[3-(2,5-Dihydro-10-methoxy-2,2,4-trimethyl-1H-[1]benzopyrano[3,4-f]quinolin-5-yl)-5-methylphenyl]ethanone]: the Ki was 5.6 nM in test [1] and at least 10000 nM in test [2].

Regarding `COc1cccc2c1-c1ccc3c(c1C(c1cc(C)cc(C(C)(C)O)c1)O2)C(C)=CC(C)(C)N3` (centres unmarked) [Example 111, 3-(2,5-Dihydro-10-methoxy-2,2,4-trimethyl-1H-[1benzopyrano3,4-f]quinolin-5-yl)5-trimethylbenzenemethanol], the values for the Ki in test [1] and in test [2] were 7.2 nM and at least 10000 nM, respectively.

As to `COc1cccc2c1-c1ccc3c(c1C(c1cccc(-c4ccco4)c1)O2)C(C)=CC(C)(C)N3` (centres unmarked) [Example 112, 5-[3-(2-Furanyl)phenyl]-2,5-dihydro-10-methoxy-2,2,4-trimethyl-1H-[1]benzopyrano[3,4-f]quinoline], the results for the inhibition constant Ki in test [1] and in test [2] were 31 nM and at least 10000 nM, respectively.

Take `COc1cccc2c1-c1ccc3c(c1C(c1cc(C)cc(N4CCCC4)c1)O2)C(C)=CC(C)(C)N3` (centres unmarked) [Example 113, 2,5-Dihydro-10-methoxy-2,2,4-trimethyl-5-[3-methyl-5-(1H-pyrrolidin-1-yl)phenyl]1H-[1]benzopyrano[3,4-f]quinoline]: the Ki was 9.7 nM in test [1] and at least 10000 nM in test [2].

For the compound `C=CCNc1cc(C)cc(C2Oc3cccc(OC)c3-c3ccc4c(c32)C(C)=CC(C)(C)N4)c1` (centres unmarked) [Example 115], the Ki was 17 nM in test [1] and at least 10000 nM in test [2].

As for `COCCNc1cc(C)cc(C2Oc3cccc(OC)c3-c3ccc4c(c32)C(C)=CC(C)(C)N4)c1` (centres unmarked) [Example 116, 3-(2,5-Dihydro-10-methoxy-2,2,4-trimethyl-1H-[1]benzopyrano[3,4-f]quinolin-5-yl)-N-(2-methoxyethyl)-5-methylbenamine], the values for the Ki in test [1] and in test [2] were 7.2 nM and at least 10000 nM, respectively.

In the case of `COc1cccc2c1-c1ccc3c(c1C(c1cc(C)cc(NC(=O)N(C)C)c1)O2)C(C)=CC(C)(C)N3` (centres unmarked) [Example 118, N′-[3-(2,5-Dihydro-10-methoxy-2,2,4-trimethyl-1H-1benzopyrano[3,4-f]quinolin-5-yl)-5-methylphenyl]-N,N-dimethylurea], the Ki in test [1] was 43 nM; in test [2] it was at least 10000 nM.

`COc1cccc2c1-c1ccc3c(c1C(c1cccc(NCc4ccccc4)c1)O2)C(C)=CC(C)(C)N3` (centres unmarked) [Example 119, N-[3-(2,5-Dihydro-10-methoxy-2,2,4-trimethyl-1H-[1]benzopyrano[3,4-f]quinolin-5-yl)phenyl]benzenemethanamine]: the figures for the inhibition constant (Ki) in test [1] and in test [2] were 6.9 nM and at least 10000 nM, respectively.

As for `COc1cccc2c1-c1ccc3c(c1C(=Cc1cc(Cl)cc(Cl)c1)O2)C(C)=CC(C)(C)N3` [Example 120, 5-[(3,5-dichlorphenyl)methylen]-2,5-dihydro-10-methoxy-2,2,4-trimethyl-1H-[1]benzopyrano[3,4-f]puinoline], the figures for the Ki in test [1] and in test [2] were 30.3 nM and 6240 nM, respectively.

Consider `COc1cccc2c1-c1ccc3c(c1C(=Cc1ccc(Cl)cc1)O2)C(C)=CC(C)(C)N3` [Example 121, 5-[(4-chlorophenyl)methylene]-2,5-dihydro-10-methoxy-2,2,4-trimethyl-1H-[1]benzopyrano[3,4-f]quinoline], for which the Ki is 11.3 nM in test [1] and 672 nM in test [2].

As to `COc1cccc2c1-c1ccc3c(c1C(=Cc1cccc(C(F)(F)F)c1)O2)C(C)=CC(C)(C)N3` [Example 122, 2,5-Dihydro-10-methoxy-2,2,4-trimethyl-5-[[3-(trifluoromethyl)phenyl]methylene-]1H-[1]-benzopyrano[3,4-f]quinoline], the Ki in test [1] came out at 11.8 nM; in test [2], 1410 nM.

As for `COc1cccc2c1-c1ccc3c(c1C(=Cc1c(F)cccc1F)O2)C(C)=CC(C)(C)N3` [Example 123], the results for the Ki in test [1] and in test [2] were 6.1 nM and 9570 nM, respectively.

With `COc1cccc2c1-c1ccc3c(c1C(=Cc1ccccc1Cl)O2)C(C)=CC(C)(C)N3` [Example 124], the Ki was found to be 3.2 nM in test [1] and 1610 nM in test [2].

Consider `COc1cccc2c1-c1ccc3c(c1C(=Cc1c(Cl)cccc1Cl)O2)C(C)=CC(C)(C)N3` [Example 125], for which the inhibition constant Ki was 36.6 nM in test [1] and at least 10000 nM in test [2].

The values are drawn from patent US6506766B1 (Abbott Laboratories, priority 1998, dated 2003).
